These results are taken from patent publication US6133266A, “3,4-disubstituted phenylethanolaminotetralincarboxamide derivatives” (Kissei Pharmaceutical Co., Ltd., priority 1996, dated 2000).

pEC50: −log10 of the molar value. Structures can show the parent of a compound that is named as a salt.

The target of data set [1] is T1, β2 -adrenergic receptor (Rattus norvegicus, UniProt P10608).
T1 construct: longitudinal uterine muscle strips (about 15 mm in length and about 5 mm in width); from tissue; host or cells: longitudinal uterine muscle strips of pregnant SD rat (day 21)
The data set can be described thus: Action of drugs on the spontaneous contractions of isolated myometria (isolated rat pregnant uterus). The format is cell-based. The following applies: isolated pregnant SD rat uterus (pregnancy day 21), Magnus method, 37° C.; read-out: EC50, activity to relax 50% of the spontaneous contractions of rat myometrium. As for the experimental part: Thus, the compounds of the present invention have markedly potent β2 -adrenergic receptor stimulating effect and therefore are remarkably useful as β2 -adrenergic receptor stimulating agents.
Action of drugs on the spontaneous contractions of isolated myometria
The uterus of a pregnant SD rat (pregnancy day of 21) was isolated and longitudinal uterine muscle strips (about 15 mm in length and about 5 mm in width) free from the basal plate were prepared. The experiment was conducted according to the Magnus method. The preparations were mounted with a tension of 1 g in Locke-Ringer solution maintained at 37° C. and gassed with a mixture of 95% of oxygen and 5% of carbon dioxide. Spontaneous contractions of the myometrium were induced isometrically via a pressure transducer and recorded on a rectigram. The efficacy was evaluated by comparing the total degree of uterine contraction during 5 minutes before the addition of the drug with the total degree of uterine contraction during 5 minutes after the addition of the drug and calculating the 50% inhibitory concentration as EC50.

Data set [2] deals with β1 -adrenergic receptor. Put plainly: Action of drugs on the atrial contractions of isolated atria (isolated rat atrium). In kind it is cell-based. The following applies: isolated atria of SD male rats, Magnus method, 37° C. As for the experimental part:
Thus, the compounds of the present invention have markedly weak β1 -adrenergic receptor stimulating effect in comparison with the aforementioned β2 -adrenergic receptor stimulating effect.
Action of drugs on the atrial contractions of isolated atria The atria of SD male rats (350 to 400 g in body weight) were isolated and the experiment was conducted according to the Magnus method. The preparations were mounted with a tension of 1 g in Krebs-Henseleit solution maintained at 37° C. and gassed with a mixture of 95% of oxygen and 5% of carbon dioxide. The atrial contraction was induced isometrically via a pressure transducer and recorded on a rectigram. After addition of the drug, its efficacy was evaluated by calculating EC20 value which is the drug concentration which increases 20 beats per minute of heart rate.

For data set [3], the system named is male ICR mice. Put plainly: Acute toxicity. The format is in vivo. The following applies: 5 male ICR mice, intravenously in saline, 20 mg/kg, during 24 hours after the administration. As for the experimental part: To 5 male ICR mice of 4 weeks age was administered intravenously 2-[(2S)-2-[[(2R)-2-hydroxy-2-(4-hydroxy-3hydroxymethylphenyl)ethyl]amino]- 1,2,3,4-tetrahydronaphthalen-7-yloxy]-N,N-dimethylacetamide 0.5 sulfate in saline at dose of 20 mg/kg.

T1 sequence (P10608 whole entry): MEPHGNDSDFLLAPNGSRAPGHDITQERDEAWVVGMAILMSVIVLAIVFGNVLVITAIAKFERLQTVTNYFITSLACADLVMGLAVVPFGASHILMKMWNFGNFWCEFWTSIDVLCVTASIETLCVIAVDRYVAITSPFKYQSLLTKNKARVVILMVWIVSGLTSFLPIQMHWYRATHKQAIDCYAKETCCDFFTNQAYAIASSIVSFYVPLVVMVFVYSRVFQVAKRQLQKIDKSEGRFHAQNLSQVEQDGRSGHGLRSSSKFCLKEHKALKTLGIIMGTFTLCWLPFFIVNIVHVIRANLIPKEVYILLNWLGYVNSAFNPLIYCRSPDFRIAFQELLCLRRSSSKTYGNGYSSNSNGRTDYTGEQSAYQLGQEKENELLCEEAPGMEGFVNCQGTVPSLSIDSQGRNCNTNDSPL

A word on the pEC50: it is the EC50 on a negative log10 scale, so that one unit is a factor of ten. On to `CN(C)C(=O)COc1ccc2c(c1)C[C@@H](NCC(O)c1ccc(O)c(CO)c1)CC2` (mixture of isomers) [Compound 1, 2-[(2S)-2-[[(2RS)-2-Hydroxy-2-(4-hydroxy-3-hydroxymethylphenyl)ethyl]amino]-1,2,3,4-tetrahydronaphthalen-7yloxy]-N,N-dimethylacetamide], for which the pEC50 in data set [1] was 8.28. In data set [2], the “EC20 value, activity to increase 20 beats per minute of rat heart rate” value is 2.5×10^-6 mol concentration.

In the case of `CN(C)C(=O)COc1ccc2c(c1)C[C@@H](NC[C@H](O)c1ccc(O)c(CO)c1)CC2` [Compound 6, (-)-2-[(2S)-2-[[(2R)-2-Hydroxy-2-(4-hydroxy-3-hydroxymethylphenyl)ethyl]amino]-1,2,3,4-tetrahydronaphthalen-7-yloxy]-N,N-dimethylacetamide], in data set [1], the negative logarithm of the EC50 (pEC50) is 8.59. For the same compound, the “EC20 value, activity to increase 20 beats per minute of rat heart rate” value in data set [2] is 9.4×10^-7 mol concentration.

For the compound `CN(C)C(=O)COc1ccc2c(c1)C[C@@H](NC[C@H](O)c1ccc(O)c(CO)c1)CC2` [Compound 19, (-)-2-[(2S)-2-[[(2R)-2-Hydroxy-2-(4-hydroxy-3-hydroxymethylphenyl)ethyl]amino]-1,2,3,4-tetrahydronaphthalen-7-yloxy]-N,N-dimethylacetamide 0.5 sulfate], the death of animals result in data set [3] is reported as “No death of animals was observed”.
